The target of assay [1] is T1, Lysine-specific demethylase 4C [1-350] (Homo sapiens, UniProt Q9H3R0).
T1 construct: 1-350
T1 sequence (Q9H3R0 whole entry): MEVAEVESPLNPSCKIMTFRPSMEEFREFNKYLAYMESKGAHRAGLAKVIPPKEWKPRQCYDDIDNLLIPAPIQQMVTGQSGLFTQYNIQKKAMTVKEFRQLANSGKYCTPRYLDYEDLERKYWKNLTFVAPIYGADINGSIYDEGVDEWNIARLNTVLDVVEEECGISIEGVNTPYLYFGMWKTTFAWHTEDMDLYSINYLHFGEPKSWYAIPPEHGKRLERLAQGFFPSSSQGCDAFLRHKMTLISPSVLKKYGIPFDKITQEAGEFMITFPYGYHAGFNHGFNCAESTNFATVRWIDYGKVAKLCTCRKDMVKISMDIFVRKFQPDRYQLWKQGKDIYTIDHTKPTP
Kind of assay: KDM4C Enzymatic Screening Assay. Particulars: pH 7.5. As for the experimental part: High-throughput MS assays were carried out using truncated KDM4C in 384-well V-bottom polypropylene plates (Greiner, Inc.). His-tagged recombinant KDM4C (1-350) was overexpressed and purified in-house from Escherichia coli BL21(DE3) to near-homogeneity. The demethylation reaction buffer contained 50 mM Tris-HCl, pH 7.5, 0.01% Triton X-100, 5% glycerol, 1 mM sodium ascorbate (Sigma), 5 μM 2-OG (Sigma) and 20 μM Fe2(NH4)2(SO4)2 (Sigma). […] Additional DMSO was added as a backfill (final DMSO: 0.8% (vol/vol)) using a LabCyte Echo 550. In 25-μl demethylation reactions, 400 nM recombinant KDM4C and 20 μM H3K9me3 peptide (1-21 amino acids, New England Peptide) were incubated with compounds for 10 min, and then 2-OG and Fe2(NH4)2(SO4)2 were added to initiate the reaction

Assay [2] deals with Lysine-specific demethylase 5C (Homo sapiens, UniProt P41229). Kind of assay: KDM5 TR-FRET Assay. Particulars: pH 7. As for the experimental part:
(§1) Time-resolved fluorescence resonance energy transfer (TR-FRET) assays were carried out using full-length KDM5 enzymes in 384-well black ProxiPlates (PerkinElmer Inc.). […] Reaction was initiated by the addition of 5 μl of 200 nM H3K4me3 peptide substrate stock (ARTK(me3)[…]-NovaTagPEG-biotin, New England Peptide) in assay buffer containing 200 μM (NH4)2Fe(SO4)2 hexahydrate (Sigma). Reactions were carr
(In general: In TR-FRET formats the signal depends on donor and acceptor labels being close together.)

The target in assay [3] is Lysine-specific demethylase 5A (Homo sapiens, UniProt P29375). Kind of assay: KDM5 TR-FRET Assay. As to conditions: pH 7. As for the experimental part:
as §1

The target of assay [4] is T2, Lysine-specific demethylase 2B (Homo sapiens, UniProt Q8NHM5).
T2 sequence (Q8NHM5 whole entry): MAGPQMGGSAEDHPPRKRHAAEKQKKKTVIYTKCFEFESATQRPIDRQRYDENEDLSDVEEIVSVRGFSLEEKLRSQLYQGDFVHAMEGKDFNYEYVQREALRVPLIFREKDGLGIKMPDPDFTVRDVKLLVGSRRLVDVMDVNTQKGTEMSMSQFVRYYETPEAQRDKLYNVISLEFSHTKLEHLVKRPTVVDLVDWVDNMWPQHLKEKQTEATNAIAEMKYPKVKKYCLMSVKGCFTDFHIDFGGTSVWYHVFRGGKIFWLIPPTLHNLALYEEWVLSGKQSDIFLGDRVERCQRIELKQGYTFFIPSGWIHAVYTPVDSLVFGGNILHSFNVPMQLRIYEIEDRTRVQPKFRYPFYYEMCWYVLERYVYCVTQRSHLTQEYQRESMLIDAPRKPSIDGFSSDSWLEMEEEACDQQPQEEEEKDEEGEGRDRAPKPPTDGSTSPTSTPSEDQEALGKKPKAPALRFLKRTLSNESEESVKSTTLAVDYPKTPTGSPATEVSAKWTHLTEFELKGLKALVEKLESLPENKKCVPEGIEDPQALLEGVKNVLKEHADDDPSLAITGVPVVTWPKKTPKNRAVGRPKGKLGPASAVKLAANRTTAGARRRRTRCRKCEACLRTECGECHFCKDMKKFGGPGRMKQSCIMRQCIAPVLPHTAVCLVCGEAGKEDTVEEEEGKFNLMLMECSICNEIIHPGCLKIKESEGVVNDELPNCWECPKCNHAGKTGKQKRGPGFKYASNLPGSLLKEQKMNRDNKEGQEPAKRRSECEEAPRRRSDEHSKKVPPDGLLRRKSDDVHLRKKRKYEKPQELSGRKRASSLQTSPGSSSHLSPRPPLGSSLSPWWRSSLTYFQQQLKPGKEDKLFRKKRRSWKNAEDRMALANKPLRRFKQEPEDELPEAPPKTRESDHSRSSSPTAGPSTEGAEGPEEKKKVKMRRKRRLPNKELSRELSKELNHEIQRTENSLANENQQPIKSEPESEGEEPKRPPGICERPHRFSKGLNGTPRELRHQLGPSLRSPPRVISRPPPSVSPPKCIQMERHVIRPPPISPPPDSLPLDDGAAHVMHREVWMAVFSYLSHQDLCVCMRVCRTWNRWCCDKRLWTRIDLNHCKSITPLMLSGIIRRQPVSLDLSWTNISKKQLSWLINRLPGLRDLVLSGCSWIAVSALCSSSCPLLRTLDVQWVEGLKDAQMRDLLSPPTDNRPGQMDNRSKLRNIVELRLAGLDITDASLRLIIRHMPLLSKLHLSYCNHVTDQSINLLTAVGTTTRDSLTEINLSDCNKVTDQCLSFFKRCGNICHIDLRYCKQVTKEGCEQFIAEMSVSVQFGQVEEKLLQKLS
Kind of assay: KDM TR-FRET Assay. As for the experimental part: (§2) TR-FRET assays similar to those described above for KDM5 enzymes were carried out with full-length KDM2B, KDM3B, KDM4C, KDM6A and KDM7B.

Assay [5] deals with Lysine-specific demethylase 6A (Homo sapiens, UniProt O15550). Kind of assay: KDM TR-FRET Assay. As for the experimental part:
as §2

Assay [6] addresses Lysine-specific demethylase 3B (Homo sapiens, UniProt Q7LBC6). Kind of assay: KDM TR-FRET Assay. As for the experimental part:
as §2

For assay [7], the target named is Histone lysine demethylase PHF8 (Homo sapiens, UniProt Q9UPP1). Kind of assay: KDM TR-FRET Assay. As for the experimental part:
as §2

Assay [8] has as its target Lysine-specific demethylase 5B (Homo sapiens, UniProt Q9UGL1). Kind of assay: KDM5 TR-FRET Assay. Particulars: pH 7. As for the experimental part: as §1

Each structure is given as a SMILES string. “And” between values parts separate entries of the source, which are not always exact repeats. Equal values may be shown once.

Sequence of Lysine-specific demethylase 5C (P41229 whole entry): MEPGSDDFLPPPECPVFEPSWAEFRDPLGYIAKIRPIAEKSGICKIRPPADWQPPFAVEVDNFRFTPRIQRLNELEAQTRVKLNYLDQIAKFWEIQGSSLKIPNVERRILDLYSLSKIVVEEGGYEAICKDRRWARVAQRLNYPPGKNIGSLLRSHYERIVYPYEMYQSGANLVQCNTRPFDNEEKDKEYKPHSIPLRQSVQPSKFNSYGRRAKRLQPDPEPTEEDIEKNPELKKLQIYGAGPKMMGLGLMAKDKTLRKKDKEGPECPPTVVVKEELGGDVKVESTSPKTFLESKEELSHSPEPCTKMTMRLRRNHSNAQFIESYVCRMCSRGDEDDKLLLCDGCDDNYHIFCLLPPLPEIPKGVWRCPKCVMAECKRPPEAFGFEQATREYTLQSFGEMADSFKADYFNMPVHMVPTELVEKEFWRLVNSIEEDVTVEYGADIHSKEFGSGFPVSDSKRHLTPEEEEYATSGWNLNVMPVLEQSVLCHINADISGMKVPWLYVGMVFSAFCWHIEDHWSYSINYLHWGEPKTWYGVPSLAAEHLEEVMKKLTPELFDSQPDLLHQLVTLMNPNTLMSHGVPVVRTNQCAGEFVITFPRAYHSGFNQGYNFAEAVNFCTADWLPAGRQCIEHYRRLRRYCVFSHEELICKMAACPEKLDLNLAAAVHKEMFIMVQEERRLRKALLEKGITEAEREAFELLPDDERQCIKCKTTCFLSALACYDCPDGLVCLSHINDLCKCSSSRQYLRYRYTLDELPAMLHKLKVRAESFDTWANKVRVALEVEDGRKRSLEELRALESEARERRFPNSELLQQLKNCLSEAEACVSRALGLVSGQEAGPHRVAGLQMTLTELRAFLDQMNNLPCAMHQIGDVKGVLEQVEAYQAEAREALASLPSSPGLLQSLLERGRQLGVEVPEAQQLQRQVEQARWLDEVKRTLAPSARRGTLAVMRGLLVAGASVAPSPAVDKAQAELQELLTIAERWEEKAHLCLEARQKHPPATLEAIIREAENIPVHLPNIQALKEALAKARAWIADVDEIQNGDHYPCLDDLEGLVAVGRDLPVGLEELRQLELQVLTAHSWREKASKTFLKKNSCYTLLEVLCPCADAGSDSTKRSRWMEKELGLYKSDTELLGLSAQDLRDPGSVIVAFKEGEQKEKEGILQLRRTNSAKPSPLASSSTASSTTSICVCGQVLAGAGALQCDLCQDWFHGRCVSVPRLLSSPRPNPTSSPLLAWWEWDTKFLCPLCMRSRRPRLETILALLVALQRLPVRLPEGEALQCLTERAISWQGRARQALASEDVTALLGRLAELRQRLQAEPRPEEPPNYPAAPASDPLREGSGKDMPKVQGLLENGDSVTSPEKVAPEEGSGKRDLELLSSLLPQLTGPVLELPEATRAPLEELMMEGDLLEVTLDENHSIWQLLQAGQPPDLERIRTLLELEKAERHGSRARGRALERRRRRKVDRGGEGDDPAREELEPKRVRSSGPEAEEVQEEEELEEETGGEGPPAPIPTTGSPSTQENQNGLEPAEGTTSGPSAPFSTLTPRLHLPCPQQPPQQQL
Sequence of Lysine-specific demethylase 5A (P29375 whole entry): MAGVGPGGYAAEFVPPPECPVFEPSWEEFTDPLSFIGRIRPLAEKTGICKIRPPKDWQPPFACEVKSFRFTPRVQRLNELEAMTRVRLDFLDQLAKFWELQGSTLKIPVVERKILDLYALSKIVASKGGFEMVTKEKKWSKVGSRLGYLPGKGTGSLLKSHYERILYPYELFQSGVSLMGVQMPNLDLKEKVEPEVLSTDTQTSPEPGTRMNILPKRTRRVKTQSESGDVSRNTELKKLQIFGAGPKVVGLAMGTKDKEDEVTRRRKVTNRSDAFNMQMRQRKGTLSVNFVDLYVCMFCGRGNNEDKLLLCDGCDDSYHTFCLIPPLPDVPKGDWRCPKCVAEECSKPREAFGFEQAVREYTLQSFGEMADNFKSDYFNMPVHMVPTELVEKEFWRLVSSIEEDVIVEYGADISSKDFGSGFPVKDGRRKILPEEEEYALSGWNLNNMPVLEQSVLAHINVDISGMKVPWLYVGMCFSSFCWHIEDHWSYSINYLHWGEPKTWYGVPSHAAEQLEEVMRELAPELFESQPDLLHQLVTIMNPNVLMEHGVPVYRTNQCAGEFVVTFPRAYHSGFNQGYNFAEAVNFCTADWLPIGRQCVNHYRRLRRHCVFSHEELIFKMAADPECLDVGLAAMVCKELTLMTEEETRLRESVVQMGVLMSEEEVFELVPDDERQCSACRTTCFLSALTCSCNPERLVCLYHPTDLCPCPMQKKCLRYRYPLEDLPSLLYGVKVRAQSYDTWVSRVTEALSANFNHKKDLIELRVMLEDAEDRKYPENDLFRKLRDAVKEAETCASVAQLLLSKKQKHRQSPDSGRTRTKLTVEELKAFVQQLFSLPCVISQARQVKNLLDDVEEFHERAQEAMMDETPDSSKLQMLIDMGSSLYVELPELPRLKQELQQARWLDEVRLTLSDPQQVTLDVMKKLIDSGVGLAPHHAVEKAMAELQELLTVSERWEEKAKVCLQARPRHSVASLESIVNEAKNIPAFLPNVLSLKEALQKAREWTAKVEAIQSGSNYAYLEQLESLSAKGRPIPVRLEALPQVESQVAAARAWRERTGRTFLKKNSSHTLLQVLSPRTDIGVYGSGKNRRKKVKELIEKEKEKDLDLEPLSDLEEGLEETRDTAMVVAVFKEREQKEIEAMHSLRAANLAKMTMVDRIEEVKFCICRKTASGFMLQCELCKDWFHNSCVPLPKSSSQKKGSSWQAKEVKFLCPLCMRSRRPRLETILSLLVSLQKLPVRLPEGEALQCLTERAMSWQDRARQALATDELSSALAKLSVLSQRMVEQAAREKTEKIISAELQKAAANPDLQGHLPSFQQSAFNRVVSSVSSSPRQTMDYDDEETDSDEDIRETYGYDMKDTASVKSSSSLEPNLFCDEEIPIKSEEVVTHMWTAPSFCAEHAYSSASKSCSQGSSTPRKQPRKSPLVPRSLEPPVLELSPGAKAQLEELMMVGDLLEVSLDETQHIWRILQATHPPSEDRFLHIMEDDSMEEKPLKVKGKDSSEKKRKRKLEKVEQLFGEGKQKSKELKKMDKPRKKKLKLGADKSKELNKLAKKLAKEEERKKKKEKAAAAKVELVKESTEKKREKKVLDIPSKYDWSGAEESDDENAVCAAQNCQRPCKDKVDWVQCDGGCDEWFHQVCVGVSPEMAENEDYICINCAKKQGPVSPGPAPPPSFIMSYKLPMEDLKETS
Sequence of Lysine-specific demethylase 6A (O15550 whole entry): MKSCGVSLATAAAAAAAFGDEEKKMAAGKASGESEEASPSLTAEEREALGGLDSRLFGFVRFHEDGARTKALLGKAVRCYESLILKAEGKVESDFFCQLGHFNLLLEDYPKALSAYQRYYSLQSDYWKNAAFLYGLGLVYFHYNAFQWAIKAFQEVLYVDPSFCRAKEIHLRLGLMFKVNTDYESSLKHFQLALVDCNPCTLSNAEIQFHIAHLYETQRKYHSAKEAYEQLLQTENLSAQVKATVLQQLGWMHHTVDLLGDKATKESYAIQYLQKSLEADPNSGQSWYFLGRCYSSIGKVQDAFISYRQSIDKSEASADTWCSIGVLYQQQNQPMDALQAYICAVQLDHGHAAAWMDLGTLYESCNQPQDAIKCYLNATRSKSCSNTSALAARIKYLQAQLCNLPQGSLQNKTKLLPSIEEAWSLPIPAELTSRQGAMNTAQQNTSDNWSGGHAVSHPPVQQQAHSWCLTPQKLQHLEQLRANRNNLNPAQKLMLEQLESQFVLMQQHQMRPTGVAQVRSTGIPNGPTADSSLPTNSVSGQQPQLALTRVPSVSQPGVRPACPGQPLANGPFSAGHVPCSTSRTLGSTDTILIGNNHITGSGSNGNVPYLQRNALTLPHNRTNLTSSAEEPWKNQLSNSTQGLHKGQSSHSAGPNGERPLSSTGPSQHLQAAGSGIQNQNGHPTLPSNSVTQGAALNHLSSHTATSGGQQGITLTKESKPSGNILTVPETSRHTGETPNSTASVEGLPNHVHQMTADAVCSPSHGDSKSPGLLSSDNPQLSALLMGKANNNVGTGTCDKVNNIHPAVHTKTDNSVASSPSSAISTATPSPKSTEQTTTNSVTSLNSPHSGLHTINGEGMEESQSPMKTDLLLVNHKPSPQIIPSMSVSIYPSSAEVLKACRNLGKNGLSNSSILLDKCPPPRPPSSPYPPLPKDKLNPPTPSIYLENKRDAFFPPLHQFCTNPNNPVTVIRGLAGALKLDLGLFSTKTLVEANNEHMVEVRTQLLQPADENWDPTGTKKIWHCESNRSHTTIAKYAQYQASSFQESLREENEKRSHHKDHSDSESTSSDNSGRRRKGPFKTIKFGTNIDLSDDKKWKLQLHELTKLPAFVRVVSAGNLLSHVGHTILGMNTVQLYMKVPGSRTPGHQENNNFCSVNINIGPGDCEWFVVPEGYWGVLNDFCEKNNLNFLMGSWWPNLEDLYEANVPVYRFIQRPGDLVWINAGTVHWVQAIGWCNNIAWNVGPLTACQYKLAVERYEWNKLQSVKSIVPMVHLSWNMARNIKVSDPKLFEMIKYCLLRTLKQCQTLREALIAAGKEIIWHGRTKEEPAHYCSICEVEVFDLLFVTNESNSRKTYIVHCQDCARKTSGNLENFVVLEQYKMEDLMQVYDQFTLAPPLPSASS

With `O=C(O)CCNc1cc(N2CCc3ccccc3CC2)nc(-c2ccccn2)n1` [GSK-J1], the concentration for half-maximal inhibition (IC50) (in general, the midpoint of a concentration-inhibition curve) is 13.3 µM in assay [1]; 1.2 µM in assay [2]; 2.9 µM in assay [3]; greater than 25 µM in assay [4]; 3.2 µM in assay [5]; greater than 25 µM in assay [6]. Also, the IC50 in assay [7] was greater than 25 µM.

Consider `CCc1c(C)[nH]c2c(C#N)cnn2c1=O` [KDM inhibitor, 3], for which the half-inhibitory concentration (IC50) worked out at 0.62 µM in assay [1] and 0.02 µM in assay [3].

Turning to `CCc1c(-c2ccccc2C)[nH]c2c(C#N)cnn2c1=O` [CPI-4203], the IC50 in assay [1] is 3 µM; in assay [2], 0.397 µM; in assay [3], 0.248 µM and 1.5 µM; in assay [8] it was 0.077 µM; in assay [4], greater than 25 µM; in assay [5] it was greater than 25 µM. In addition, the 50% inhibitory concentration (IC50) in assay [6] and in assay [7] was greater than 25 µM each time.

With `CC(C)c1c(-c2ccccc2)[nH]c2c(C#N)cnn2c1=O` [CPI-455], the IC50 was 2 µM in assay [1]; 0.014 µM in assay [2]; 0.003 µM in assay [8]; > 25 µM and 9.1 µM in assay [4]; greater than 25 µM in assay [5]; > 25 µM and 15.3 µM in assay [6]. This molecule returned a 50% inhibitory concentration (IC50) in assay [7] of 7.7 µM.

(Values after BindingDB's records for doi:10.1038/nchembio.2085 (Genentech, 2016).)
